In patent publication US20140235630A1, “COMPOSITIONS AND METHODS FOR THE TREATMENT OF PROLIFERATIVE DISEASES” (Beth Israel Deaconess Medical Center, Inc., priority 2011, published 2014):

Key:
[1] = system: blood vessels in tumors; conditions: in vivo; cited from earlier work
[2] = system: mouse lung tumors with transgenic H1047R mutant of PIK3CA; conditions: within two days; cited from earlier work
[3] = system: HCC1937 cells; test: DNA damage response immunoblots with or without ionizing radiation (10 Gy); type: cell-based, human
Protocol: FIG. 5A are immunoblots showing the effects of Compound A, ATM inhibitor KU-55933, and their combination on the DNA damage response. HCC1937 were treated for 18 hours with Compound A at 2.5 μM, KU55933 at 10 μM, or their combination, subjected to ionizing irradiation with 10 Gy or mock, lysed 6 hours later, and subjected to immunoblotting. […] Immunoblots were performed using the Nupage System (Invitrogen). The protein concentration was determined using Bradford reagent (Biorad). A total of 20 μg of protein were loaded, except for PAR, Phospho ATM and Phospho DNA-PK/PRKDC western blots, where 40 μg were loaded. Tumor tissue lysates were prepared similarly with the exception of tissue homogenization by using an electric homogenizer for 30 secs after addition of the lysis buffer. Primary antibodies used for western blotting were total AKT (9272), Cleaved […] 3 (9661), total ERK (4695), Phospho AKT Ser473 (4058), Phospho ERK Thr202/Tyr204 (9106), Phospho-Histone H2AX Ser139 (2577), PTEN (9559) from Cell Signaling. Phospho ATM […] (2152-1), Phospho DNA-PK/PRKDC […] (3892-1) from Epitomics, Inc. CD31 (ab28364), Actin (ab6276), INPP4B (ab81269) from Abcam; pADPr (sc56198) from Santacruz Biotechnology; and Ki-67 (RM-9106) was purchased from Thermo Scientific.

Compound | sprouting of new blood vessels in tumors [1] | FDG-PET signal [2] | H2AX phosphorylation in response to ionizing radiation ([3]; 18 hours pre-treatment, 10 Gy, lysed 6 hours later) | auto-phosphorylation of ATM ([3]; KU-55933 10 μM, 18 hours)
Cn1c(=O)n(-c2ccc(C(C)(C)C#N)cc2)c2c3cc(-c4cnc5ccccc5c4)ccc3ncc21 [BEZ235] | inhibits the sprouting of new blood vessels | caused a reduction in the FDG-PET signal | – | –
O=c1cc(-c2cccc3c2Sc2ccccc2S3)oc(N2CCOCC2)c1 [KU-55933, reference compound] | – | – | prevented the increase | decrease
